# Reference: ChEMBL document CHEMBL1201862, “PubChem BioAssay data set” (2004)
#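 How tested: cells in 96-well plates exposed to compound for 48 hours at five concentrations. At the GI50, growth is halved.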 The source made the active and inactive calls. Rule as the data show it: active = GI50 up to about 1.1 µM and inactive = higher.
# Tests used:
# Experiment in all cases: NCI tumour cell line growth inhibition, 48 h
# Hs-578T = test system: Hs-578T
# SF-295 = test system: SF-295
# TK-10 = test system: TK-10
# NCI-H460 = test system: NCI-H460
# BT-549 = test system: BT-549
# SN12C = test system: SN12C
# SR = test system: SR
# SNB-75 = test system: SNB-75
# NCI-H226 = test system: NCI-H226
# OVCAR-3 = test system: OVCAR-3
# SK-MEL-2 = test system: SK-MEL-2
# CAKI-1 = test system: CAKI-1
# MCF7 = test system: MCF7
# T47D = test system: T47D
# HOP-92 = test system: HOP-92
# IGROV-1 = test system: IGROV-1
# SK-MEL-5 = test system: SK-MEL-5
# HL-60 = test system: HL-60
# PC-3 = test system: PC-3
# NCI-H522 = test system: NCI-H522
SMILES,GI50 (Hs-578T),GI50 (SF-295),GI50 (TK-10),GI50 (NCI-H460),GI50 (BT-549),GI50 (SN12C),GI50 (SR),GI50 (SNB-75),GI50 (NCI-H226),GI50 (OVCAR-3),GI50 (SK-MEL-2),GI50 (CAKI-1),GI50 (MCF7),GI50 (T47D),GI50 (HOP-92),GI50 (IGROV-1),GI50 (SK-MEL-5),GI50 (HL-60),GI50 (PC-3),GI50 (NCI-H522)
N#Cc1c(-c2ccc(F)cc2)c(-c2ccc(F)cc2)nn(CCO)c1=O,0.885 µM (active),0.224 µM (active),3.36 µM (inactive),0.237 µM (active),0.879 µM (active),0.27 µM (active),0.2 µM (active),0.183 µM (active),1.77 µM (inactive),0.242 µM (active),< 0.01 µM (active),1.53 µM (inactive),3.16 µM (inactive),2.33 µM (inactive),1.91 µM (inactive),0.155 µM (active),0.175 µM (active),0.091 µM (active),0.416 µM (active),
Cc1cn([C@H]2C[C@@H]3[C@@H](COC(CCl)N3O)O2)c(=O)[nH]c1=O (stereo partly drawn),> 100 µM (inactive),> 100 µM (inactive),> 100 µM (inactive),> 100 µM (inactive),> 100 µM (inactive),> 100 µM (inactive),> 100 µM (inactive),87.9 µM (inactive),> 100 µM (inactive),> 100 µM (inactive),> 100 µM (inactive),> 100 µM (inactive),> 100 µM (inactive),> 100 µM (inactive),,> 100 µM (inactive),> 100 µM (inactive),> 100 µM (inactive),> 100 µM (inactive),> 100 µM (inactive)
O=C(O)CCc1nc(-c2ccccc2-n2cccc2)no1,> 100 µM (inactive),49.9 µM (inactive),> 100 µM (inactive),73.6 µM (inactive),> 100 µM (inactive),> 100 µM (inactive),5.46 µM (inactive),> 100 µM (inactive),> 100 µM (inactive),29 µM (inactive),> 100 µM (inactive),> 100 µM (inactive),49.3 µM (inactive),> 100 µM (inactive),> 100 µM (inactive),73.1 µM (inactive),> 100 µM (inactive),,> 100 µM (inactive),31 µM (inactive)
CCCCC1(NN=C2CCCCC2)C(=O)N(c2ccccc2)N(c2ccccc2)C1=O,> 100 µM (inactive),> 100 µM (inactive),> 100 µM (inactive),> 100 µM (inactive),> 100 µM (inactive),> 100 µM (inactive),17.3 µM (inactive),> 100 µM (inactive),,> 100 µM (inactive),,> 100 µM (inactive),> 100 µM (inactive),> 100 µM (inactive),,> 100 µM (inactive),> 100 µM (inactive),18.1 µM (inactive),> 100 µM (inactive),83 µM (inactive)
C#CCn1ncc2c(SCc3ccccc3)ncnc21,> 100 µM (inactive),53.5 µM (inactive),> 100 µM (inactive),> 100 µM (inactive),> 100 µM (inactive),> 100 µM (inactive),18.8 µM (inactive),40.8 µM (inactive),> 100 µM (inactive),> 100 µM (inactive),> 100 µM (inactive),57.8 µM (inactive),11.4 µM (inactive),3.05 µM (inactive),> 100 µM (inactive),> 100 µM (inactive),36.1 µM (inactive),,86.1 µM (inactive),73.1 µM (inactive)
O=c1[nH]c(N/N=C\C(=N/Nc2nc3ccccc3c(=O)[nH]2)C(O)C(O)C(O)CO)nc2ccccc12 (stereo not drawn),> 100 µM (inactive),> 100 µM (inactive),> 100 µM (inactive),> 100 µM (inactive),> 100 µM (inactive),> 100 µM (inactive),> 100 µM (inactive),> 100 µM (inactive),> 100 µM (inactive),> 100 µM (inactive),> 100 µM (inactive),> 100 µM (inactive),> 100 µM (inactive),> 100 µM (inactive),> 100 µM (inactive),> 100 µM (inactive),> 100 µM (inactive),> 100 µM (inactive),> 100 µM (inactive),
Cc1ccc(S(=O)(=O)n2cc(-c3cnc(N)c(Br)n3)c3ccccc32)cc1,0.863 µM (active),1.95 µM (inactive),11.4 µM (inactive),3.18 µM (inactive),22.7 µM (inactive),1.31 µM (inactive),0.764 µM (active),1.42 µM (inactive),31.2 µM (inactive),1.02 µM (active),10.8 µM (inactive),3.32 µM (inactive),0.757 µM (active),6.76 µM (inactive),3.94 µM (inactive),1.3 µM (inactive),2.91 µM (inactive),0.372 µM (active),2.92 µM (inactive),
NNC(=O)C(O)C(O)C(=O)NN (stereo not drawn),> 100 µM (inactive),> 100 µM (inactive),> 100 µM (inactive),,> 100 µM (inactive),> 100 µM (inactive),57.5 µM (inactive),> 100 µM (inactive),> 100 µM (inactive),> 100 µM (inactive),> 100 µM (inactive),> 100 µM (inactive),> 100 µM (inactive),> 100 µM (inactive),,> 100 µM (inactive),> 100 µM (inactive),,> 100 µM (inactive),54.5 µM (inactive)
CC(C)C(=O)NCC[C@@H](CNC(=O)OC(C)(C)C)NC(=O)OC(C)(C)C,> 100 µM (inactive),> 100 µM (inactive),> 100 µM (inactive),> 100 µM (inactive),> 100 µM (inactive),> 100 µM (inactive),> 100 µM (inactive),> 100 µM (inactive),> 100 µM (inactive),> 100 µM (inactive),> 100 µM (inactive),> 100 µM (inactive),> 100 µM (inactive),> 100 µM (inactive),> 100 µM (inactive),> 100 µM (inactive),> 100 µM (inactive),,> 100 µM (inactive),> 100 µM (inactive)
O=C(CSc1n[nH]c(=O)[nH]c1=O)NNC(=O)c1cccc2nc3ccccc3nc12,40.4 µM (inactive),59.3 µM (inactive),> 100 µM (inactive),32.6 µM (inactive),29.2 µM (inactive),94.8 µM (inactive),> 100 µM (inactive),,90.4 µM (inactive),> 100 µM (inactive),> 100 µM (inactive),> 100 µM (inactive),38.2 µM (inactive),> 100 µM (inactive),> 100 µM (inactive),> 100 µM (inactive),22 µM (inactive),> 100 µM (inactive),> 100 µM (inactive),
O=C(O)c1cc(N(Cc2ccccc2O)Cc2cc(O)ccc2O)ccc1O [LAVENDUSTIN A],19.8 µM (inactive),> 100 µM (inactive),> 100 µM (inactive),> 100 µM (inactive),6.21 µM (inactive),> 100 µM (inactive),82.8 µM (inactive),> 10 µM (inactive),> 100 µM (inactive),> 100 µM (inactive),> 100 µM (inactive),,> 100 µM (inactive),> 100 µM (inactive),> 100 µM (inactive),> 100 µM (inactive),> 100 µM (inactive),> 100 µM (inactive),42.3 µM (inactive),
